Where no end group is shown, it is not given here.
Key:
male rats = conditions: cited from earlier work
male Wistar rats = experiment: Irwin test; format: in vivo, rat; conditions: tail vein injection
Procedure: An Irwin test was performed on 12 male Wistar rats (Iffa Credo, L'Arbresles, France), weighing 260-280 g. They were housed in groups of 4 in a climate controlled room with a 12h light:dark cycle (light 8:00 PM-8:00 AM) and had access to food and water ad libitum. After a seven day acclimatization period, the rats were weighed, identified and randomly assigned to one of the four treatment groups. The drug was injected to the tail vein of the rats according to the group dose.
Observations were performed 15, 30, 60 and 120 minutes after administration. Among the most noticeable results are the results concerning the awareness state of the rats.

Compound	locomotion (male rats; high doses)	anxiolytic-like effect (male rats; low doses)	aggressiveness (male Wistar rats)
CC[C@H](C)[C@@H]1NC(=O)[C@H](Cc2ccc(O)cc2)NC(=O)[C@@H](N)CSSC[C@@H](C(=O)N2CCC[C@H]2C(=O)N[C@@H](CC(C)C)C(=O)NCC(N)=O)NC(=O)[C@H](CC(N)=O)NC(=O)[C@H](CCC(N)=O)NC1=O [oxytocin]	decrease locomotion	anxiolytic-like effect	–
QHNPR [FG-005, Gln-His-Asn-Pro-Arg]	–	–	not associated with an increase of aggressiveness

From patent US20030186870A1, “Therapeutic methods and compositions for the treatment of impaired interpersonal and behavioral disorders” (priority 1999, published 2003)
